Where “and” joins values, the source holds several entries; their conditions need not be identical. Equal entries are not always repeated. Where two headings read alike, the source gives them in different places.
Experiments:
[1] = test system: cyclin K–eGFP degradation reporter; assay: Cyclin K reporter stability analysis (dual-color cyclin K–eGFP reporter); assay type: cell-based, human; conditions: source data sheet correlations; read-out: DC50
Procedure, shortened: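 First, reporter-bearing HEK293T–Cas9 cells are plated at 1 × 10^6 ml^−1. Next, drug or vehicle is added for 5 h. Finally, geometric-mean eGFP and mCherry signals of round, mCherry-positive cells are measured cytometrically, and their ratio is referenced to the DMSO average.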

CDK12–cyclin K = CDK12–cyclin K (Homo sapiens, UniProt Q9NYV4); assay: Lanthascreen kinase binding assay, CDK12; conditions: for Lanthascreen raw signal, sheet CDK12: series r1, duplicates
Protocol: (§1) Lanthascreen experiments were performed using commercially available reagents (Thermo Fisher) and according to the manufacturer’s instructions.

HEK293T cells = assay: Drug sensitivity assay (CellTiter-Glo viability) with or without MLN4924 pretreatment; assay type: cell-based, human; conditions: Supplementary Table 2
Procedure, shortened: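 First, cells (HEK293T–Cas9, 0.15 × 10^6 ml^−1) are exposed to DMSO or 100 nM MLN4924. Next, drugs follow at 2 h. Finally, CellTiter-Glo is read at day 3 and normalised to DMSO.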

CDK2–cyclin A = target: T1, CDK2–cyclin A (Homo sapiens, UniProt P24941); assay: Lanthascreen kinase binding assay, CDK2; conditions: for Lanthascreen signal, sheet CDK2: raw replicates, experiment r1-r11
T1 construct: purchased Thermo Fisher
Protocol: as §1

CDK9–cyclin T = target: T2, CDK9–cyclin T (Homo sapiens, UniProt P50750); assay: Lanthascreen kinase binding assay, CDK9; conditions: for Lanthascreen TR-FRET signal (raw ratio), sheet CDK9: first titration set (r1), duplicates
T2 construct: purchased Thermo Fisher
Protocol: as §1

CDK12–cyclin K and DDB1 = target: T3, CDK12–cyclin K and DDB1 (Homo sapiens, UniProt Q16531+Q9NYV4, K965R); assay: TR-FRET ternary complex formation assay (compound titration); assay type: binding
T3 construct: His6–CDK12 (a.a. 713–1,052); full-length or beta-propeller B domain deletion (ΔBPB: a.a. 396–705 deleted) constructs of His6–DDB1ΔBPB, StrepII–Avi–DDB1, or His6–Spy–DDB1; made in house; host or cells: Trichoplusia ni High Five insect cells (baculovirus)
Procedure, shortened: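 Background fluorescence is reduced by reading 70 μs after excitation, and complex formation is followed as the 520:490 nm fluorescence ratio.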

T3 sequence (Q9NYV4 713-1052 K965R): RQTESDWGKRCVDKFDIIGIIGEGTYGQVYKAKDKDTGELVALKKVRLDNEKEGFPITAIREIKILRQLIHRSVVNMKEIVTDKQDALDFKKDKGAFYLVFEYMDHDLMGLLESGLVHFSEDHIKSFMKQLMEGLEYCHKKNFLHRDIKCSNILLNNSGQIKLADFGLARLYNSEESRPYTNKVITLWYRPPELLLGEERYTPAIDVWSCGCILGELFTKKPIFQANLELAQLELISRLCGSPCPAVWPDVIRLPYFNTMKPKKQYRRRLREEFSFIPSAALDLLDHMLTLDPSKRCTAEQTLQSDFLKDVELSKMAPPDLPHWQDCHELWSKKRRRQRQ
T3 sequence (O75909 1-267 partner): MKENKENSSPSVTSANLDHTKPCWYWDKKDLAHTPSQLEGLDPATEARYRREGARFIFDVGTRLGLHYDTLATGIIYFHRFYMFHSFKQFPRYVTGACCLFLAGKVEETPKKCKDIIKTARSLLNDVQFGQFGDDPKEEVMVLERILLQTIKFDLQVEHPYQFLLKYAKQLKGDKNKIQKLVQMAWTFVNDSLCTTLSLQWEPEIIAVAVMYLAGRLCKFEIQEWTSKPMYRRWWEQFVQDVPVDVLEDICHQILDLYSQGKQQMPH
T3 sequence (Q16531 whole entry): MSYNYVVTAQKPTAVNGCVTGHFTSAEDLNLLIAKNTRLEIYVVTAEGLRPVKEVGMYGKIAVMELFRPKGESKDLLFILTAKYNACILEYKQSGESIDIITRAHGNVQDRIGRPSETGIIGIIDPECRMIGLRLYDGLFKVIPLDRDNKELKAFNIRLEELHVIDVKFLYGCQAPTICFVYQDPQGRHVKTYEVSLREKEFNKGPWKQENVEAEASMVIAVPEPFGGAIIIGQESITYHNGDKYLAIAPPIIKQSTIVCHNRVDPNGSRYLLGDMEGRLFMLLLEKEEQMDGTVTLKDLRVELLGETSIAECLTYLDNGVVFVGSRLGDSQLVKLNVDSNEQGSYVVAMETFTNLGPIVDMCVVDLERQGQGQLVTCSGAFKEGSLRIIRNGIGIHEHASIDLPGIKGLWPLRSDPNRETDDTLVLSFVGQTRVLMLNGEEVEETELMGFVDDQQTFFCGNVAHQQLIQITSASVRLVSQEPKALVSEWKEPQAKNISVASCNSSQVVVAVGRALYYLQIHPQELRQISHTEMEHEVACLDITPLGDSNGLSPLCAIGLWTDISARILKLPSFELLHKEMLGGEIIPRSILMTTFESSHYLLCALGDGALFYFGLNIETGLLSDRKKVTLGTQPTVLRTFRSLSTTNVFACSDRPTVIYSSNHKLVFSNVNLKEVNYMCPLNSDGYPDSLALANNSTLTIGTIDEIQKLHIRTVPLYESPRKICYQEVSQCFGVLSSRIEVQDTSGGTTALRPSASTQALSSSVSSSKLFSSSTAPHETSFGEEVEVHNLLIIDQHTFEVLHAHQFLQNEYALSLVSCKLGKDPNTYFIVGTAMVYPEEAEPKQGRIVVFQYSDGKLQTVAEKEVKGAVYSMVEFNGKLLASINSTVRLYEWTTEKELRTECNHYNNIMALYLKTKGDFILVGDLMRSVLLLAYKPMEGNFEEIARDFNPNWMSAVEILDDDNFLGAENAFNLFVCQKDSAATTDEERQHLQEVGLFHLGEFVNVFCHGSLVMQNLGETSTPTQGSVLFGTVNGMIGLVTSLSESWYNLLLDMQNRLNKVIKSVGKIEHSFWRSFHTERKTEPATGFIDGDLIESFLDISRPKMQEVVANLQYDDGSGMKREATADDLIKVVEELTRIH
Chain of CDK12–cyclin K (Q9NYV4 713-1052): as the sequence (Q9NYV4 713-1052 K965R) above, with R253K counted along it
Chain of CDK12–cyclin K (O75909 1-267 partner limits assumed): as the sequence (O75909 1-267 partner) above
T2 sequence (P50750 whole entry): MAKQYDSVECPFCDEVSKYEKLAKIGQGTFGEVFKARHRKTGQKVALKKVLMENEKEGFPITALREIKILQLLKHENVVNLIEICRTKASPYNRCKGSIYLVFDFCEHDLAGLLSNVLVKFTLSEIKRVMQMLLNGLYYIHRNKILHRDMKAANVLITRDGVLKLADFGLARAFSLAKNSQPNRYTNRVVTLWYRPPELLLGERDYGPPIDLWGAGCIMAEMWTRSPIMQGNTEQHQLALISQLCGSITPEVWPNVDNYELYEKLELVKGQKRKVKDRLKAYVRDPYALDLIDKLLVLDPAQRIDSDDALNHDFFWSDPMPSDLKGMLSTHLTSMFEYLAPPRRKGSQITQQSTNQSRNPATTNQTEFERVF
T2 sequence (O60563 whole entry partner): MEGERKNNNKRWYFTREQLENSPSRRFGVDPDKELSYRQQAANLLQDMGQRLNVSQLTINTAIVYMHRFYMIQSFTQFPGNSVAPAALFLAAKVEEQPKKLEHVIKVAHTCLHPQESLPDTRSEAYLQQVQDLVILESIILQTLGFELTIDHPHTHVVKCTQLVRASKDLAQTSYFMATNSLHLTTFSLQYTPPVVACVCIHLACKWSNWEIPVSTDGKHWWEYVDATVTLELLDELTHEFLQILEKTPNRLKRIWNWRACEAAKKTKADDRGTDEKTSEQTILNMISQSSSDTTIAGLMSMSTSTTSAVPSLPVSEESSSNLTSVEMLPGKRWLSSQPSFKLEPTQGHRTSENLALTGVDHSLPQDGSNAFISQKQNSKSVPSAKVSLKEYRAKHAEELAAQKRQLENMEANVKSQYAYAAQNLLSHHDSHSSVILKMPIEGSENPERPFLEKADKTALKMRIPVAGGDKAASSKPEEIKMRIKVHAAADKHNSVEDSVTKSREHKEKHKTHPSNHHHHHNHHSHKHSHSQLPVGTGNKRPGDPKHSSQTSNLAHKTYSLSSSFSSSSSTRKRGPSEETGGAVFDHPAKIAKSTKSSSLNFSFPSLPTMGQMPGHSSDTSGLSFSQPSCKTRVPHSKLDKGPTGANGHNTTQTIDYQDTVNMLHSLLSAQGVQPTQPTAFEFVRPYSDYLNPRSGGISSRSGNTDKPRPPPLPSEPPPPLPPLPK

- DC50 [1]: 51 nM
- IC50 (CDK12–cyclin K; Supplementary Table 2, read-out: Lanthascreen IC50 [nM] CDK12): 25 nM
- Lanthascreen raw signal, sheet CDK12 (CDK12–cyclin K; compound 1.02544 nM): 0.009355 and 0.008483
- Lanthascreen raw signal, sheet CDK12 (CDK12–cyclin K; compound 3.15521 nM): 0.00952 and 0.009538
- Lanthascreen raw signal, sheet CDK12 (CDK12–cyclin K; compound 9.46563 nM): 0.009122 and 0.008857
- Lanthascreen raw signal, sheet CDK12 (CDK12–cyclin K; compound 31.5521 nM): 0.006579 and 0.007668
- Lanthascreen raw signal, sheet CDK12 (CDK12–cyclin K; compound 99.3891 nM): 0.005593 and 0.007192
- Lanthascreen raw signal, sheet CDK12 (CDK12–cyclin K; compound 315.521 nM): 0.006881 and 0.006508
- Lanthascreen raw signal, sheet CDK12 (CDK12–cyclin K; compound 3155.21 nM): 0.007229 and 0.005774
- Lanthascreen raw signal, sheet CDK12 (CDK12–cyclin K; compound 10002 nM): 0.005716 and 0.005184
- Lanthascreen signal, sheet CDK2 (CDK2–cyclin A; Compound 1.02544 nM): 0.01044 and 0.01012
- Lanthascreen signal, sheet CDK2 (CDK2–cyclin A; Compound 3.15521 nM): 0.0108 and 0.009644
- Lanthascreen signal, sheet CDK2 (CDK2–cyclin A; Compound 9.46563 nM): 0.01089 and 0.009432
- Lanthascreen signal, sheet CDK2 (CDK2–cyclin A; Compound 31.5521 nM): 0.01098 and 0.01188
- Lanthascreen signal, sheet CDK2 (CDK2–cyclin A; Compound 99.3891 nM): 0.011 and 0.01075
- Lanthascreen signal, sheet CDK2 (CDK2–cyclin A; Compound 315.521 nM): 0.009926 and 0.01051
- Lanthascreen signal, sheet CDK2 (CDK2–cyclin A; Compound 3155.21 nM): 0.01049 and 0.01005
- Lanthascreen signal, sheet CDK2 (CDK2–cyclin A; Compound 10002 nM): 0.009311 and 0.007215
- IC50 (CDK2–cyclin A; Lanthascreen, average, Extended Data Fig. 8, read-out: CDK2 IC50): > 10000 nM
- IC50 (CDK2–cyclin A; Supplementary Table 2, read-out: Lanthascreen IC50 [nM] CDK2): > 10000 nM
- IC50 (CDK9–cyclin T; Supplementary Table 2, read-out: Lanthascreen IC50 [nM] CDK9): 2580 nM
- Lanthascreen TR-FRET signal (raw ratio), sheet CDK9 (CDK9–cyclin T; compound 1.02544 nM): 0.01642 and 0.01407
- Lanthascreen TR-FRET signal (raw ratio), sheet CDK9 (CDK9–cyclin T; compound 3.15521 nM): 0.01297 and 0.01448
- Lanthascreen TR-FRET signal (raw ratio), sheet CDK9 (CDK9–cyclin T; compound 9.46563 nM): 0.01462 and 0.01504
- Lanthascreen TR-FRET signal (raw ratio), sheet CDK9 (CDK9–cyclin T; compound 31.5521 nM): 0.01422 and 0.01715
- Lanthascreen TR-FRET signal (raw ratio), sheet CDK9 (CDK9–cyclin T; compound 99.3891 nM): 0.0151 and 0.01375
- Lanthascreen TR-FRET signal (raw ratio), sheet CDK9 (CDK9–cyclin T; compound 315.521 nM): 0.01436 and 0.01406
- Lanthascreen TR-FRET signal (raw ratio), sheet CDK9 (CDK9–cyclin T; compound 3155.21 nM): 0.01124 and 0.01046
- Lanthascreen TR-FRET signal (raw ratio), sheet CDK9 (CDK9–cyclin T; compound 10002 nM): 0.00772 and 0.01002
- TR-FRET signal at compound concentration 0.468 nM (CDK12–cyclin K and DDB1; compound concentration 0.468 nM, raw replicate titration data): 0.2798 and 0.3065 and 0.1782 and 0.1849
- TR-FRET signal at compound concentration 2.16 nM (CDK12–cyclin K and DDB1; compound concentration 2.16 nM, raw replicate titration data): 0.3614 and 0.3498 and 0.2211 and 0.2229
- TR-FRET signal at compound concentration 3.6 nM (CDK12–cyclin K and DDB1; compound concentration 3.6 nM, raw replicate titration data): 0.435 and 0.4393 and 0.2978 and 0.2973
- TR-FRET signal at compound concentration 7.92001 nM (CDK12–cyclin K and DDB1; compound concentration 7.92001 nM, raw replicate titration data): 0.5995 and 0.6274 and 0.4373 and 0.4353
- TR-FRET signal at compound concentration 15.84 nM (CDK12–cyclin K and DDB1; compound concentration 15.84 nM, raw replicate titration data): 0.9577 and 0.9944 and 0.7392 and 0.7343
- TR-FRET signal at compound concentration 30.96 nM (CDK12–cyclin K and DDB1; compound concentration 30.96 nM, raw replicate titration data): 1.593 and 1.564 and 1.2847 and 1.436
- TR-FRET signal at compound concentration 62.6401 nM (CDK12–cyclin K and DDB1; compound concentration 62.6401 nM, raw replicate titration data): 1.875 and 1.832 and 1.71 and 1.6908
- TR-FRET signal at compound concentration 125.28 nM (CDK12–cyclin K and DDB1; compound concentration 125.28 nM, raw replicate titration data): 1.954 and 1.862 and 1.734 and 1.741
- TR-FRET signal at compound concentration 244.8 nM (CDK12–cyclin K and DDB1; compound concentration 244.8 nM, raw replicate titration data): 2.043 and 1.982 and 1.799 and 1.754
- TR-FRET signal at compound concentration 993.601 nM (CDK12–cyclin K and DDB1; compound concentration 993.601 nM, raw replicate titration data): 2.0625 and 2.016 and 1.825 and 1.774
- TR-FRET signal at compound concentration 2001.6 nM (CDK12–cyclin K and DDB1; compound concentration 2001.6 nM, raw replicate titration data): 1.983 and 1.981 and 1.797 and 1.763
- EC50 (CDK12–cyclin K and DDB1; in vitro complex formation, 50 nM CDK12–cyclin K, 100 nM DDB1, text and figures, read-out: TR-FRET EC50): 20 ± 1 nM
- EC50 (CDK12–cyclin K and DDB1; sheet MOESM7, read-out: log TR-FRET EC50 (converted)): 19.8 nM
- EC50 (CDK12–cyclin K and DDB1; source data sheet correlations, read-out: TR-FRET EC50): 19.8 nM
Structure (SMILES): Cn1cc(-c2cnn3c(NCc4nc5cc(Cl)c(Cl)cc5[nH]4)nc(N4CCOCC4)nc23)cn1 [DS74]
- EC50 (HEK293T cells; Homo sapiens, HEK-293T, HEK293T viability, 72 h, compound alone, read-out: Cellular assays EC50): 104 nM
- Toxicity rescue (HEK293T cells; MLN4924-mediated cytotoxicity rescue, 10 µM used where n.d.): 916%

Reference: PMC10746543, “Design principles for cyclin K molecular glue degraders” (Nature Chemical Biology, 2023)
